From patent US20260137706A1, “METHODS OF TREATING INFLAMMATORY DISEASES” (INTERLINE THERAPEUTICS, INC., priority 2023, published 2026)
Like-named read-outs stand apart in the source and are kept apart here.

What was measured:
[1] = biological target: T1, GST-RIPK2 fusion protein (human RIPK2, amino acids 1-310) (Homo sapiens, UniProt O43353); assay: RIPK2 binding competition assay (TR-FRET, Tracer 199 displacement); details: 10 nM Tracer 199, 1 nM GST-RIPK2, read-out: RIPK2 IC50
T1 construct: made in house; host or cells: baculovirus infected Sf9 cells
From the text: The ability of selected compounds of Formula (I) to inhibit the binding of an Alexa647-labelled ATP-competitive kinase inhibitor to a GST-RIPK2 fusion protein was quantified employing the TR-FRET-based RIPK2 binding competition assay as described in the following paragraphs.
Recombinant fusion protein of N-terminal Glutathione-S-Transferase (GST) and a fragment of human RIPK2 (amino acids 1-310 of accession number 043353), expressed in baculovirus infected Sf9 cells, purified via glutathione affinity chromatography, was used as GST-RIPK2 fusion protein. Tracer 199 from Life Technologies (catalogue no. PR9115B) was used as Alexa647-labelled ATP-competitive kinase inhibitor.
For the assay, 50 nL of a 100-fold concentrated solution of each test compound in DMSO was pipetted into either a black low volume 384-well microtiter plate or a black 1536-well microtiter plate (both Greiner Bio-One, Frickenhausen, Germany), 3 μL solution of Tracer 199 (16.7 nM=>final concentration in 5 μL assay volume is 10 nM) in aqueous assay buffer (25 mM Tris/HCl pH 7.5, 10 mM magnesium chloride (MgCl2), 5 mM β-glycerophosphate, 2.5 mM dithiothreitol (DTT), 0.5 mM ethylene glycol-bis(2-aminoethylether)-N,N,N′,N′-tetraacetic acid (EGTA), 0.5 mM sodium ortho-vanadate, 0.01% (w/v) bovine serum albumin (BSA), 0.005% (w/v) Pluronic F-127 (Sigma)) were added. Then the binding competition was started by the addition of 2 μL of a solution of the GST-RIPK2 fusion protein (2.5 nM=>final conc. in the 5 μL assay volume is 1 nM) and of Anti-GST-Tb (1.25 nM=>final conc. in the 5 μL assay volume is 0.5 nM), a Lumi4®—Tb cryptate-conjugated anti-GST antibody from PerkinElmer (catalogue no 61GSTTAH), in assay buffer.
The resulting mixture was incubated 45 min at 22° C. to allow the formation of a complex between the Tracer 199, the fusion protein and Anti-GST-Tb. Subsequently, the amount of this complex was evaluated by measurement of the resonance energy transfer from the Tb-cryptate to the Tracer 199. Therefore, the fluorescence emissions at 620 nm and 665 nm after excitation at 337 nm were measured in a TR-FRET reader, e.g. a Pherastar FS (BMG Labtechnologies, Offenburg, Germany) or a Viewlux (PerkinElmer). The ratio of the emissions at 665 nm and at 620 nm was taken as the measure of the amount of the complex. The data were normalized (assay reaction without inhibitor=0% activity, all other assay components but no GST-RIPK2 fusion protein=−100% activity).
Table A1 below lists IC50 values of selected compounds of Formula (I) measured in the RIPK2 binding competition assay.

[2] = biological target: T2, binding of His-XIAP(BIR2)-avi fusion protein to GST-RIPK2 fusion protein (RIPK2/XIAP) (Homo sapiens, UniProt O43353); assay: RIPK2-XIAP binding competition PPI assay (TR-FRET); details: for Emax: read-out: PPI Amax bin; for IC50: read-out: PPI IC50 bin
T2 construct: made in house; host or cells: baculovirus infected Sf9 cells
Method in brief: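 Compounds (in DMSO, 100-fold stock) incubated 120 min at 23 °C with 1 nM GST-RIPK2 (aa 1-310) and 25 nM His-XIAP(BIR2 aa 152-231)-avi, plus anti-His-XL665 and anti-GST-Tb, in pH 7.5 Tris buffer. Read-out: 665/520 nm emission ratio. Normalized to no-inhibitor (0%) and 50 nM GSK583 (−100%); Amax binned A–D.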

[3] = tested on: NF-κB pathway (SEAP) in THP1-Dual cells; assay: THP-1 Dual cell SEAP assay (L18-MDP stimulated); format: cell-based; details: Homo sapiens, THP1-Dual, read-out: NF-κB THP1 IC50 bin
Method in brief: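 THP1-Dual cells (~25,000/well) were preincubated 30 min with serially diluted compounds, then stimulated with 10 ng/mL L18-MDP (final) for 20-24 h at 37 °C. Supernatant SEAP was read with QUANTI-Blue at OD 620-655 nm after 2 h. IC50 came from non-linear fits of % inhibition versus DMSO/L18-MDP controls after media-blank subtraction.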

[4] = RIPK2/XIAP binding competition PPI assay, Amax
[5] = RIPK2/XIAP binding competition PPI assay

T1 sequence (O43353 1-310): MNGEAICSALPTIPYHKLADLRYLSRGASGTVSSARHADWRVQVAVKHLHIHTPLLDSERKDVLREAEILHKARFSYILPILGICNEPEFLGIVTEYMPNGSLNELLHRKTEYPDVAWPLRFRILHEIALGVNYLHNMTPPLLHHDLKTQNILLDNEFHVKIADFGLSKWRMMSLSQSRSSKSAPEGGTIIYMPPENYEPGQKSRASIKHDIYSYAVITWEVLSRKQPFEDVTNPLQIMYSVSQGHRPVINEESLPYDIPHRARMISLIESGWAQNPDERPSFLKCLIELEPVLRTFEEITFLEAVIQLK
T2 sequence (O43353 1-310 limits assumed): as the sequence (O43353 1-310) above

SMILES	IC50 [1]	Emax [2, 4]	IC50 [2, 5]	IC50 [3]	Emax [2]
COc1cc2ncc(-c3cc(F)nc(NCCCO)c3)n2cc1C(F)(F)F [Example 1, 3-((6-Fluoro-4-(7-methoxy-6-(trifluoromethyl)imidazo[1,2-a]pyridin-3-yl)pyridin-2-yl)amino)propan-1-ol]	2.5 to 20 nM	< 30%	> 20 nM	50 to 250 nM	–
COc1cc2ncc(-c3cc(N)nc(F)c3)n2cc1C(F)(F)F [Example 2, 6-fluoro-4-(7-methoxy-6-(trifluoromethyl)imidazo[1,2-a]pyridin-3-yl)pyridin-2-amine]	2.5 to 20 nM	< 30%	> 20 nM	50 to 250 nM	–
Nc1cc(-c2cnn3ccc(C(F)(F)F)cc23)cc(F)n1 [Example 3, 6-fluoro-4-(5-(trifluoromethyl)pyrazolo[1,5-a]pyridin-3-yl)pyridin-2-amine]	> 20 nM	< 30%	> 20 nM	250 to 1000 nM	–
Nc1cc(-c2cnc3ccc(C(F)(F)F)cn23)cc(F)n1 [Example 4, 6-fluoro-4-(6-(trifluoromethyl)imidazo[1,2-a]pyridin-3-yl)pyridin-2-amine]	> 20 nM	< 30%	> 20 nM	250 to 1000 nM	–
OCCCNc1cc(-c2cnc3ccc(C(F)(F)F)cn23)cc(F)n1 [Example 5, 3-((6-fluoro-4-(6-(trifluoromethyl)imidazo[1,2-a]pyridin-3-yl)pyridin-2-yl)amino)propan-1-ol]	> 20 nM	< 30%	> 20 nM	250 to 1000 nM	–
OCCCNc1cc(-c2cnn3ccc(C(F)(F)F)cc23)cc(F)n1 [Example 6, 3-((6-fluoro-4-(5-(trifluoromethyl)pyrazolo[1,5-a]pyridin-3-yl)pyridin-2-yl)amino)propan-1-ol]	2.5 to 20 nM	< 30%	> 20 nM	50 to 250 nM	–
COc1cc2ncc(-c3cc(N)cc4[nH]ncc34)n2cc1S(=O)(=O)C(C)(C)C [Example 7, 4-[7-Methoxy-6-(2-methylpropane-2-sulfonyl)imidazo[1,2-a]pyridin-3-yl]-1H-indazol-6-amine]	> 20 nM	30 to 55%	> 20 nM	> 1000 nM	–
COc1cc2ncc(-c3ccc(NC(C)=O)nc3)n2cc1S(=O)(=O)C(C)(C)C [Example 8, N-(5-(6-(tert-butylsulfonyl)-7-methoxyimidazo[1,2-a]pyridin-3-yl)pyridin-2-yl)acetamide]	> 20 nM	< 30%	> 20 nM	> 1000 nM	–
COC(=O)Nc1ccc(-c2cnc3cc(OC)c(S(=O)(=O)C(C)(C)C)cn23)cn1 [Example 9, methyl (5-(6-(tert-butylsulfonyl)-7-methoxyimidazo[1,2-a]pyridin-3-yl)pyridin-2-yl)carbamate]	> 20 nM	< 30%	> 20 nM	> 1000 nM	–
COc1cc2ncc(-c3cc4cn[nH]c4cn3)n2cc1S(=O)(=O)C(C)(C)C [Example 11, 5-(6-(tert-butylsulfonyl)-7-methoxyimidazo[1,2-a]pyridin-3-yl)-1H-pyrazolo[3,4-c]pyridine]	2.5 to 20 nM	–	> 20 nM	< 50 nM	< 30%
CC(C)(C)S(=O)(=O)c1cn2c(-c3cc(F)c(N)nc3F)cnc2cc1OCCO [Example 12, 2-((3-(6-amino-2,5-difluoropyridin-3-yl)-6-(tert-butylsulfonyl)imidazo[1,2-a]pyridin-7-yl)oxy)ethan-1-ol]	2.5 to 20 nM	–	2.5 to 20 nM	50 to 250 nM	> 80%
CC(C)(C)S(=O)(=O)c1cn2c(-c3cc(Cl)c(N)nc3F)cnc2cc1OCCO [Example 13, 2-((3-(6-amino-5-chloro-2-fluoropyridin-3-yl)-6-(tert-butylsulfonyl)imidazo[1,2-a]pyridin-7-yl)oxy)ethan-1-ol]	1 to 2.5 nM	> 80%	1 to 2.5 nM	50 to 250 nM	–
CC(C)(C)S(=O)(=O)c1cc2c(-c3cc(F)c(N)nc3F)cnn2cc1OCCO [Example 14, 2-((3-(6-amino-2,5-difluoropyridin-3-yl)-5-(tert-butylsulfonyl)pyrazolo[1,5-a]pyridin-6-yl)oxy)ethan-1-ol]	1 to 2.5 nM	> 80%	1 to 2.5 nM	50 to 250 nM	–
CC(C)(C)S(=O)(=O)c1cc2c(-c3cc(Cl)c(N)nc3F)cnn2cc1OCCO [Example 15, 2-((3-(6-amino-5-chloro-2-fluoropyridin-3-yl)-5-(tert-butylsulfonyl)pyrazolo[1,5-a]pyridin-6-yl)oxy)ethan-1-ol]	1 to 2.5 nM	> 80%	1 to 2.5 nM	50 to 250 nM	–
COCCOc1cc2ncc(-c3cc(F)c(N)nc3F)n2cc1S(=O)(=O)C(C)(C)C [Example 16, 5-(6-(tert-butylsulfonyl)-7-(2-methoxyethoxy)imidazo[1,2-a]pyridin-3-yl)-3,6-difluoropyridin-2-amine]	2.5 to 20 nM	> 80%	2.5 to 20 nM	250 to 1000 nM	–
CC(C)(C)S(=O)(=O)c1cn2c(-c3cc(F)c(N)nc3F)cnc2cc1OCCCO [Example 17, 3-((3-(6-amino-2,5-difluoropyridin-3-yl)-6-(tert-butylsulfonyl)imidazo[1,2-a]pyridin-7-yl)oxy)propan-1-ol]	1 to 2.5 nM	> 80%	1 to 2.5 nM	50 to 250 nM	–
CC(C)(C)S(=O)(=O)c1cn2c(-c3cc(F)c(N)nc3F)cnc2cc1OCCN1CCOCC1 [Example 18, 5-(6-(tert-butylsulfonyl)-7-(2-morpholinoethoxy)imidazo[1,2-a]pyridin-3-yl)-3,6-difluoropyridin-2-amine]	2.5 to 20 nM	> 80%	2.5 to 20 nM	250 to 1000 nM	–
CN1CCN(CCOc2cc3ncc(-c4cc(F)c(N)nc4F)n3cc2S(=O)(=O)C(C)(C)C)CC1 [Example 19, 5-(6-(tert-butylsulfonyl)-7-(2-(4-methylpiperazin-1-yl)ethoxy)imidazo[1,2-a]pyridin-3-yl)-3,6-difluoropyridin-2-amine]	2.5 to 20 nM	> 80%	2.5 to 20 nM	250 to 1000 nM	–
CN(C)CCOc1cc2ncc(-c3cc(F)c(N)nc3F)n2cc1S(=O)(=O)C(C)(C)C [Example 20, 5-(6-(tert-butylsulfonyl)-7-(2-(dimethylamino)ethoxy)imidazo[1,2-a]pyridin-3-yl)-3,6-difluoropyridin-2-amine]	2.5 to 20 nM	> 80%	> 20 nM	> 1000 nM	–
CC(C)(C)S(=O)(=O)c1cn2c(-c3cc(F)c(N)nc3F)cnc2cc1OCCN1CCNCC1 [Example 21, 5-(6-(tert-butylsulfonyl)-7-(2-(piperazin-1-yl)ethoxy)imidazo[1,2-a]pyridin-3-yl)-3,6-difluoropyridin-2-amine]	1 to 2.5 nM	> 80%	2.5 to 20 nM	> 1000 nM	–
Cn1cc(-c2cc3ncc(-c4cc(F)c(N)nc4F)n3cc2S(=O)(=O)C(C)(C)C)cn1 [Example 22, 5-(6-(tert-butylsulfonyl)-7-(1-methyl-1H-pyrazol-4-yl)imidazo[1,2-a]pyridin-3-yl)-3,6-difluoropyridin-2-amine]	2.5 to 20 nM	> 80%	2.5 to 20 nM	250 to 1000 nM	–
